# From patent publication US20230312587A1, “PTERIDINONE COMPOUNDS AND USES THEREOF” (Vertex Pharmaceutical Incorporated, priority 2018, published 2023)
# What was measured:
# [1] = tested on: β-catenin-TCF-mediated reporter transcription activity in Colo 205 cells; assay: Colo 205 reporter assay (TCF/LEF luciferase); type: cell-based; conditions: Homo sapiens, COLO 205, 5 h, Colo 205 TCF/LEF luciferase reporter, five hours after addition of compound; read-out: TCF reporter Colo205 IC50
# Procedure, shortened: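 Luciferase signal from a TCF/LEF-driven reporter, stably integrated in Colo 205 colon cancer cells, was measured 5 h after compound addition.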
# [2] = tested on: Colo205-TCF/LEF-Luciferase (Luc) tumor; assay: In vivo inhibition of TCF/LEF reporter activity in Colo-205 tumors; parameters: concentration or dose not given beside the values; conditions: TCF/LEF luciferase reporter in Colo-205 tumors, nu/nu mice, oral gavage
# Experimental: Colo205-TCF/LEF-Luciferase (Luc) tumor cells were expanded in complete DMEM cell culture media [DMEM (Life Technologies, product #11960-051) media supplemented with 10% FBS (Hyclone, catalog #SH30071.03), antimycotic/antibiotic (Life Technologies, product #15240-062), and Glutamax (Life Technologies, product #35050-061)] with 1 ug/ml puromycin. After reaching confluency/high density, the loosely attached cells in media were transferred from the flask to 50 ml conical tubes. Tumor cells adhered to plastic were detached with trypsin and combined with cells in the conical tubes. The tumor cells were triturated, counted, and pelleted by centrifugation. Cell pellets were resuspended in 0.9% injectable saline (6×10^7 cells/ml). A 50 ul volume (3×10^6 cells) was injected subcutaneously in the flanks of 4-6 wk old female nu/nu mice (Charles River Laboratories). Approximately 13-16 days after implantation, tumors between 200-500 mm^3 were selected (based on caliper measurements and applying the formula […]) and randomized into groups of n=4. Mice were dosed by oral gavage with compound dissolved in 1:3:5:1 EtOH:DMSO:PEG-400:H2O at a rate of 10 ml/kg or 1:3:5:1 EtOH:DMSO:PEG-400:H2O alone (Vehicle Control). Tumors were collected from mice euthanized by CO2 inhalation and snap frozen in liquid nitrogen. Tumors were stored in a −80 degrees C. freezer until they were processed.
# Tumors were thawed on ice and homogenized in cold Lysis Buffer (20 mM Tris-HCl (pH 7.5), 150 mM NaCl, 1 mM Na2EDTA, 1 mM EGTA, 1% Triton, 2.5 mM sodium pyrophosphate, 1 mM beta-glycerophosphate, 1 mM Na3VO4, 1 μg/ml leupeptin, 0.05% SDS) using a closed tissue grinder system (Fisher Scientific, Cat #02-542-09) on ice according to manufacturer's instructions. For 100 mg of tumor, 500 uL of Lysis Buffer was used. Tumor lysate was transferred to a pre-chilled microcentrifuge tube and centrifuged at 10,000×g for 10 minutes at 4 degrees C. Supernatant was transferred to a new pre-chilled microcentrifuge tube and was used immediately for analysis of protein content and luciferase activity.
# Protein content of tumor lysate supernatant was determined using the BCA assay (Life Technologies Cat #23225). Luciferase activity of tumor lysate supernatant was determined by addition of Steady-Glo luminescence reagent (Promega, Cat #E2550) according to manufacturer's instructions and measurement on a Pherastar luminescence plate reader (BMG Labtech). Luciferase activity was normalized to protein content.
SMILES,IC50 [1] [nM],Percent Remaining Activity at 8 hrs after Dosing [2] [%]
"Cc1nc(NCc2cnn(Cc3ccc(F)cc3C#N)c2)nc2c1N(C)C(=O)[C@H](C)N2C [Compound 63, (7S)-5-fluoro-2-((4-(((4,5,7,8-tetramethyl-6-oxo-5,6,7,8-tetrahydropteridin-2-yl)amino)methyl)-1H-pyrazol-1-yl)methyl)benzonitrile]",< 300,9
"Cc1nc(NCc2cnn(Cc3ccc(OC(C)C)nc3)c2)nc2c1NC(=O)[C@H](C)N2C [Compound 135, (7S)-2-(((1-((6-isopropoxypyridin-3-yl)methyl)-1H-pyrazol-4-yl)methyl)amino)-4,7,8-trimethyl-7,8-dihydropteridin-6(5H)-one]",< 300,43
"Cc1nc(NCc2cnn([C@H]3C[C@H]3c3ccc(F)cc3)c2)nc2c1NC(=O)[C@H](C)N2C [Compound 155, (7S)-2-(((1-((1S,2S)-2-(4-fluorophenyl)cyclopropyl)-1H-pyrazol-4-yl)methyl)amino)-4,7,8-trimethyl-7,8-dihydropteridin-6(5H)-one]",< 300,17
"Cc1nc(NCc2cnn(Cc3ccc(C#N)nc3)c2)nc2c1NC(=O)[C@H](C(C)C)N2C [Compound 431, (7S)-5-((4-(((7-isopropyl-4,8-dimethyl-6-oxo-5,6,7,8-tetrahydropteridin-2-yl)amino)methyl)-1H-pyrazol-1-yl)methyl)picolinonitrile]",< 300,29
"Cc1nc(NCc2cnn(Cc3ccc(Cl)nc3)c2)nc2c1NC(=O)[C@H](C1CC1)N2C [Compound 434, (7S)-2-(((1-((6-chloropyridin-3-yl)methyl)-1H-pyrazol-4-yl)methyl)amino)-7-cyclopropyl-4,8-dimethyl-7,8-dihydropteridin-6(5H)-one]",< 300,26
"Cc1nc(NCc2cnn(Cc3ccc(C(F)(F)F)nc3)c2)nc2c1NC(=O)[C@H](C(C)(C)C)N2C [Compound 436, (7S)-7-(tert-butyl)-4,8-dimethyl-2-(((1-((6-(trifluoromethyl)pyridin-3-yl)methyl)-1H-pyrazol-4-yl)methyl)amino)-7,8-dihydropteridin-6(5H)-one]",< 300,16
"Cc1nc(NCc2cnn(Cc3ccc(F)nc3)c2)nc2c1NC(=O)[C@H](C(C)(C)C)N2C [Compound 437, (7S)-7-(tert-butyl)-2-(((1-((6-fluoropyridin-3-yl)methyl)-1H-pyrazol-4-yl)methyl)amino)-4,8-dimethyl-7,8-dihydropteridin-6(5H)-one]",< 300,20
"Cc1nc(NCc2cnn(Cc3ccc(C(F)(F)F)nc3)c2)nc2c1N(C)C(=O)[C@H](CCO)N2C [Compound 443, (7S)-7-(2-hydroxyethyl)-4,5,8-trimethyl-2-(((1-((6-(trifluoromethyl)pyridin-3-yl)methyl)-1H-pyrazol-4-yl)methyl)amino)-7,8-dihydropteridin-6(5H)-one]",300 to 1000,100
"Cc1nc(NCc2cnn(Cc3ccc(Cl)nc3)c2)nc2c1N(C)C(=O)[C@H](CCO)N2C [Compound 445, (7S)-2-(((1-((6-chloropyridin-3-yl)methyl)-1H-pyrazol-4-yl)methyl)amino)-7-(2-hydroxyethyl)-4,5,8-trimethyl-7,8-dihydropteridin-6(5H)-one]",300 to 1000,98
"Cc1nc(NCc2cnn(Cc3ccnc(C(F)(F)F)c3)c2)nc2c1NC(=O)[C@H](C(C)C)N2C [Compound 447, (S)-7-isopropyl-4,8-dimethyl-2-(((1-((2-(trifluoromethyl)pyridin-4-yl)methyl)-1H-pyrazol-4-yl)methyl)amino)-7,8-dihydropteridin-6(5H)-one]",< 300,76
"Cc1nc(NCc2cnn(Cc3cc(F)c(F)c(F)c3)c2)nc2c1NC(=O)[C@H](C(C)C)N2C [Compound 449, (S)-7-isopropyl-4,8-dimethyl-2-(((1-(3,4,5-trifluorobenzyl)-1H-pyrazol-4-yl)methyl)amino)-7,8-dihydropteridin-6(5H)-one]",< 300,22
"COc1c(F)cc(Cn2cc(CNc3nc(C)c4c(n3)N(C)[C@@H](C(C)C)C(=O)N4)cn2)cc1F [Compound 450, (S)-2-(((1-(3,5-difluoro-4-methoxybenzyl)-1H-pyrazol-4-yl)methyl)amino)-7-isopropyl-4,8-dimethyl-7,8-dihydropteridin-6(5H)-one]",< 300,32
"Cc1nc(NCc2cnn(Cc3ccnc(C(F)(F)F)c3)c2)nc2c1NC(=O)[C@H](C1CC1)N2C [Compound 455, (S)-7-cyclopropyl-4,8-dimethyl-2-(((1-((2-(trifluoromethyl)pyridin-4-yl)methyl)-1H-pyrazol-4-yl)methyl)amino)-7,8-dihydropteridin-6(5H)-one]",< 300,63
"Cc1nc(NCc2cnn(Cc3ccnc(N(C)C)c3)c2)nc2c1NC(=O)[C@H](C1CC1)N2C [Compound 466, (S)-7-cyclopropyl-2-(((1-((2-(dimethylamino)pyridin-4-yl)methyl)-1H-pyrazol-4-yl)methyl)amino)-4,8-dimethyl-7,8-dihydropteridin-6(5H)-one]",< 300,101
"Cc1nc(NCc2cnn(Cc3cnc(Cl)s3)c2)nc2c1NC(=O)[C@H](C(C)C)N2C [Compound 491, (S)-2-(((1-((2-chlorothiazol-5-yl)methyl)-1H-pyrazol-4-yl)methyl)amino)-7-isopropyl-4,8-dimethyl-7,8-dihydropteridin-6(5H)-one]",< 300,41
"Cc1nc(NC2CN(C(=O)c3cc(F)c(F)c(F)c3)C2)nc2c1NC(=O)[C@H](C(C)C)N2C [Compound 496, (S)-7-isopropyl-4,8-dimethyl-2-((1-(3,4,5-trifluorobenzoyl)azetidin-3-yl)amino)-7,8-dihydropteridin-6(5H)-one]",< 300,17
"CO[C@H](C)[C@H]1C(=O)Nc2c(C)nc(NCc3cnn(Cc4ccc(Cl)nc4)c3)nc2N1C [Compound 499, (S)-2-(((1-((6-chloropyridin-3-yl)methyl)-1H-pyrazol-4-yl)methyl)amino)-7-((R)-1-methoxyethyl)-4,8-dimethyl-7,8-dihydropteridin-6(5H)-one]",< 300,31
"Cc1nc(NCc2cnn(Cc3ccc(C(F)F)nc3)c2)nc2c1NC(=O)[C@H](C(C)C)N2C [Compound 500, (S)-2-(((1-((6-(difluoromethyl)pyridin-3-yl)methyl)-1H-pyrazol-4-yl)methyl)amino)-7-isopropyl-4,8-dimethyl-7,8-dihydropteridin-6(5H)-one]",< 300,43
"Cc1nc(NCc2cnn(Cc3ccc(C(F)F)nc3)c2)nc2c1NC(=O)[C@H](C1CC1)N2C [Compound 501, (S)-7-cyclopropyl-2-(((1-((6-(difluoromethyl)pyridin-3-yl)methyl)-1H-pyrazol-4-yl)methyl)amino)-4,8-dimethyl-7,8-dihydropteridin-6(5H)-one]",< 300,53
"Cc1nc(NCc2cnn(Cc3ccc(C(C)(F)F)nc3)c2)nc2c1NC(=O)[C@H](C(C)C)N2C [Compound 511, (S)-2-(((1-((6-(1,1-difluoroethyl)pyridin-3-yl)methyl)-1H-pyrazol-4-yl)methyl)amino)-7-isopropyl-4,8-dimethyl-7,8-dihydropteridin-6(5H)-one]",< 300,52
"Cc1nc(NCc2cnn(Cc3cnc(C(C)C)o3)c2)nc2c1NC(=O)[C@H](C(C)C)N2C [Compound 517, (S)-7-isopropyl-2-(((1-((2-isopropyloxazol-5-yl)methyl)-1H-pyrazol-4-yl)methyl)amino)-4,8-dimethyl-7,8-dihydropteridin-6(5H)-one]",< 300,93
